Assay results published in ChEMBL document CHEMBL1201862, “PubChem BioAssay data set” (2004).
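Results reflect a 48-hour exposure of cells in 96-well plates to compound at five concentrations. GI50 = concentration required for 50% inhibition of growth.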 Calls of active or inactive are those of the source. Rule as the data show it: active = GI50 up to about 1.1 µM and inactive = higher.

Tests used:
Assay in all cases: NCI anticancer screen, dose series, 48 h
SK-MEL-2 = tested on: SK-MEL-2
HCT-15 = tested on: HCT-15
SN12C = tested on: SN12C
HOP-62 = tested on: HOP-62
HL-60 = tested on: HL-60
HOP-92 = tested on: HOP-92
ACHN = tested on: ACHN
CAKI-1 = tested on: CAKI-1
MOLT-4 = tested on: MOLT-4
COLO 205 = tested on: COLO 205
786-0 = tested on: 786-0
OVCAR-3 = tested on: OVCAR-3
NCI-H23 = tested on: NCI-H23
SK-OV-3 = tested on: SK-OV-3
LOX IMVI = tested on: LOX IMVI
SNB-19 = tested on: SNB-19
U-251 = tested on: U-251
RPMI-8226 = tested on: RPMI-8226
K562 = tested on: K562

Compound | GI50 (SK-MEL-2) | GI50 (HCT-15) [µM] | GI50 (SN12C) | GI50 (HOP-62) | GI50 (HL-60) | GI50 (HOP-92) | GI50 (ACHN) | GI50 (CAKI-1) | GI50 (MOLT-4) | GI50 (COLO 205) | GI50 (786-0) | GI50 (OVCAR-3) | GI50 (NCI-H23) | GI50 (SK-OV-3) | GI50 (LOX IMVI) | GI50 (SNB-19) | GI50 (U-251) | GI50 (RPMI-8226) | GI50 (K562)
CC(C)(C)OC(=O)N[C@H]1CC(O)c2ccccc2N(CC(=O)O)C1=O (some centres undefined) | > 100 µM (inactive) | > 100 | > 100 µM (inactive) | > 100 µM (inactive) | > 100 µM (inactive) | > 100 µM (inactive) | > 100 µM (inactive) | > 100 µM (inactive) | > 100 µM (inactive) | > 100 µM (inactive) | > 100 µM (inactive) | > 100 µM (inactive) | > 100 µM (inactive) | > 100 µM (inactive) | > 100 µM (inactive) | > 100 µM (inactive) |  |  | 
CC12Oc3ccc4ccccc4c3CC1Cc1c(ccc3ccccc13)O2 (centres undefined) | 48 µM (inactive) |  |  | 53 µM (inactive) | > 100 µM (inactive) | 0.124 µM (active) | > 100 µM (inactive) | 48 µM (inactive) |  | > 100 µM (inactive) | 40.2 µM (inactive) |  | > 100 µM (inactive) |  | 56.2 µM (inactive) | 45.5 µM (inactive) | 50.6 µM (inactive) |  | 
COc1ccc(/C=N/N=C(\N)NO)c(OC)c1C | 22.3 µM (inactive) | 9.14 | 26 µM (inactive) | 7.19 µM (inactive) |  | 19.8 µM (inactive) | 11.1 µM (inactive) | 8.49 µM (inactive) | 22.2 µM (inactive) | 10.2 µM (inactive) | 16.1 µM (inactive) | 7.96 µM (inactive) | 19.5 µM (inactive) | 34.4 µM (inactive) | 4.81 µM (inactive) | 65.2 µM (inactive) | 45.1 µM (inactive) | 23.7 µM (inactive) | 10.1 µM (inactive)
C/C=C1\CCC2c3[nH]c4ccccc4c3CCN2C1 (centres undefined) | > 100 µM (inactive) |  | > 100 µM (inactive) | > 100 µM (inactive) | 43.3 µM (inactive) | 26.3 µM (inactive) | > 100 µM (inactive) | > 100 µM (inactive) | 76.4 µM (inactive) |  | 70.1 µM (inactive) | 35.8 µM (inactive) | 77.4 µM (inactive) | > 100 µM (inactive) |  | > 100 µM (inactive) | > 100 µM (inactive) |  | 43.6 µM (inactive)
Cc1ccc(Cc2c(=O)[nH]nc3ccccc23)cc1 | > 100 µM (inactive) | > 100 | > 100 µM (inactive) | > 100 µM (inactive) |  | 89.7 µM (inactive) | > 100 µM (inactive) | > 100 µM (inactive) | > 100 µM (inactive) | > 100 µM (inactive) | > 100 µM (inactive) | > 100 µM (inactive) | > 100 µM (inactive) | > 100 µM (inactive) | > 100 µM (inactive) | > 100 µM (inactive) |  | > 100 µM (inactive) | > 100 µM (inactive)
CCCCCCCCCCCCCCCc1ccc(OCC(O)CO)cc1 (centres undefined) | 18.9 µM (inactive) | 81.8 | 18 µM (inactive) | 47.1 µM (inactive) | 27.7 µM (inactive) | 20.7 µM (inactive) | 65 µM (inactive) | 31.6 µM (inactive) | > 100 µM (inactive) | 23.6 µM (inactive) |  | 23 µM (inactive) | 17.8 µM (inactive) | 99.3 µM (inactive) | 18.2 µM (inactive) | 40.1 µM (inactive) | 23.7 µM (inactive) | 18.9 µM (inactive) | > 100 µM (inactive)
OCC(O)COc1ccc(Br)cc1 (centres undefined) | > 100 µM (inactive) | > 100 | 60.3 µM (inactive) | > 100 µM (inactive) | > 100 µM (inactive) | > 100 µM (inactive) | > 100 µM (inactive) | > 100 µM (inactive) |  | > 100 µM (inactive) |  | > 100 µM (inactive) | > 100 µM (inactive) | > 100 µM (inactive) | > 100 µM (inactive) | > 100 µM (inactive) | > 100 µM (inactive) | > 100 µM (inactive) | > 100 µM (inactive)
O=C(CC1C(=O)c2ccccc2C1=C1C(=O)c2ccccc2C1=O)c1ccccc1 (centres undefined) | > 100 µM (inactive) | 64.4 | > 100 µM (inactive) | > 100 µM (inactive) | 44.6 µM (inactive) | 74.3 µM (inactive) | 80.4 µM (inactive) | > 100 µM (inactive) | 77.3 µM (inactive) | 37.2 µM (inactive) | 50.6 µM (inactive) |  | > 100 µM (inactive) | > 100 µM (inactive) | > 100 µM (inactive) | > 100 µM (inactive) | > 100 µM (inactive) | > 100 µM (inactive) | 30.3 µM (inactive)
CCCCC(C(=O)C(=O)Nc1ccc(C)cc1C)C(=O)C(C)C (centres undefined) | > 100 µM (inactive) | > 100 | > 100 µM (inactive) | > 100 µM (inactive) | > 100 µM (inactive) | > 100 µM (inactive) | > 100 µM (inactive) | > 100 µM (inactive) | > 100 µM (inactive) |  | > 100 µM (inactive) | > 100 µM (inactive) | > 100 µM (inactive) |  | > 100 µM (inactive) | > 100 µM (inactive) | > 100 µM (inactive) | > 100 µM (inactive) | > 100 µM (inactive)
O=C(O)C1CC2CC(=O)C1C2 (centres undefined) | > 100 µM (inactive) |  | > 100 µM (inactive) | > 100 µM (inactive) | > 100 µM (inactive) | > 100 µM (inactive) | > 100 µM (inactive) | > 100 µM (inactive) | > 100 µM (inactive) | > 100 µM (inactive) | > 100 µM (inactive) | > 100 µM (inactive) | > 100 µM (inactive) | > 100 µM (inactive) | > 100 µM (inactive) | > 100 µM (inactive) | > 100 µM (inactive) | > 100 µM (inactive) | > 100 µM (inactive)
O=C(N/C(=C\c1ccc([N+](=O)[O-])cc1)c1nc2ccccc2s1)c1ccccc1 | 23.7 µM (inactive) | 27.2 | 20.9 µM (inactive) | 35.6 µM (inactive) |  | 23.6 µM (inactive) | 29.2 µM (inactive) | 31 µM (inactive) | 19.1 µM (inactive) | 58.3 µM (inactive) | 18 µM (inactive) | 29.3 µM (inactive) | 19.7 µM (inactive) | > 100 µM (inactive) | 20 µM (inactive) | 32.8 µM (inactive) | 31.6 µM (inactive) | 19.2 µM (inactive) | 17.7 µM (inactive)
O=C1NC(=S)NC1C(Cc1ccccc1)c1ccco1 (centres undefined) |  | > 100 | > 100 µM (inactive) |  | 39.6 µM (inactive) | > 100 µM (inactive) | > 100 µM (inactive) | > 100 µM (inactive) | 81.7 µM (inactive) | > 100 µM (inactive) | > 100 µM (inactive) |  | > 100 µM (inactive) | > 100 µM (inactive) | > 100 µM (inactive) | > 100 µM (inactive) | > 100 µM (inactive) | 84.9 µM (inactive) | 83.4 µM (inactive)
Cc1ccccc1C1SCc2nc3ccccc3n21 (centres undefined) | > 100 µM (inactive) |  | > 100 µM (inactive) |  | 1.92 µM (inactive) | 2.43 µM (inactive) | > 100 µM (inactive) | > 100 µM (inactive) |  | > 100 µM (inactive) | > 100 µM (inactive) | > 100 µM (inactive) | 12.8 µM (inactive) | > 100 µM (inactive) |  | > 100 µM (inactive) | > 100 µM (inactive) | 5.85 µM (inactive) | 3.77 µM (inactive)
O=C(Nc1ccc(Cl)cc1)C1C(=O)C(=O)N(c2ccc(Cl)cc2)C1=O (centres undefined) | 38.6 µM (inactive) | 35.9 | 81.1 µM (inactive) |  | > 100 µM (inactive) | 29.1 µM (inactive) | 89.9 µM (inactive) | > 100 µM (inactive) | 71.3 µM (inactive) | > 100 µM (inactive) | > 100 µM (inactive) | > 100 µM (inactive) | > 100 µM (inactive) | > 100 µM (inactive) | > 100 µM (inactive) | 76.7 µM (inactive) | 58.6 µM (inactive) | > 100 µM (inactive) | 41.1 µM (inactive)
COc1cc2cc3c4c(cc(OC)c(OC)c4c2cc1OC)CCN3C(=O)CCCC(=O)O | > 100 µM (inactive) |  | > 100 µM (inactive) | > 100 µM (inactive) | > 100 µM (inactive) | > 100 µM (inactive) | > 100 µM (inactive) | > 100 µM (inactive) | > 100 µM (inactive) | > 100 µM (inactive) | > 100 µM (inactive) | > 100 µM (inactive) | > 100 µM (inactive) | > 100 µM (inactive) | > 100 µM (inactive) | > 100 µM (inactive) | > 100 µM (inactive) | > 100 µM (inactive) | > 100 µM (inactive)
Cc1oc2nc(N(C)C)n3nnnc3c2c1C |  | > 100 | > 100 µM (inactive) |  | 18.6 µM (inactive) | > 100 µM (inactive) | 61.9 µM (inactive) | > 100 µM (inactive) | > 100 µM (inactive) | > 100 µM (inactive) | 70.1 µM (inactive) |  | > 100 µM (inactive) | 85.7 µM (inactive) | > 100 µM (inactive) | > 100 µM (inactive) | > 100 µM (inactive) | > 100 µM (inactive) | > 100 µM (inactive)
C[C@@H]1C[C@]2(C[C@@H](C)[C@H]3C(C[C@@]4(C)CCC[C@@H]5C6=C[C@H](CCC34C)OC6=CC(=O)OC5(C)C)O2)OC1=O (some centres undefined) | > 51.5 µM (inactive) | > 51.5 | > 51.5 µM (inactive) | > 51.5 µM (inactive) | > 51.5 µM (inactive) | 43.1 µM (inactive) |  | > 51.5 µM (inactive) | > 51.5 µM (inactive) | > 51.5 µM (inactive) |  | > 51.5 µM (inactive) | > 51.5 µM (inactive) | > 51.5 µM (inactive) | > 51.5 µM (inactive) | > 51.5 µM (inactive) | > 51.5 µM (inactive) | > 51.5 µM (inactive) | > 51.5 µM (inactive)
